Laboratory results published in patent publication US7601686B2, “Hepatitis C virus inhibitors” (Bristol-Myers Squibb Company, priority 2005, dated 2009).
Where two headings read alike, the source gives them in different places.

Target: T1, HCV NS3/4A protease complex, BMS strain (UniProt P27958, species not given/STRAIN_BMS)
T1 construct: DNA encoding the recombinant HCV NS3/4A protease complex (amino acids 1027 to 1711) for these strains [H77 and J4L6S]; fused on or other part: For the H77 and J4L6S constructs, a three-lysine solubilising tail at the NS4A C-terminus and a Ni-NTA-purifiable tag from pET21b
T1 sequence (P27958 1027-1657, stated change not applied, one chain of several): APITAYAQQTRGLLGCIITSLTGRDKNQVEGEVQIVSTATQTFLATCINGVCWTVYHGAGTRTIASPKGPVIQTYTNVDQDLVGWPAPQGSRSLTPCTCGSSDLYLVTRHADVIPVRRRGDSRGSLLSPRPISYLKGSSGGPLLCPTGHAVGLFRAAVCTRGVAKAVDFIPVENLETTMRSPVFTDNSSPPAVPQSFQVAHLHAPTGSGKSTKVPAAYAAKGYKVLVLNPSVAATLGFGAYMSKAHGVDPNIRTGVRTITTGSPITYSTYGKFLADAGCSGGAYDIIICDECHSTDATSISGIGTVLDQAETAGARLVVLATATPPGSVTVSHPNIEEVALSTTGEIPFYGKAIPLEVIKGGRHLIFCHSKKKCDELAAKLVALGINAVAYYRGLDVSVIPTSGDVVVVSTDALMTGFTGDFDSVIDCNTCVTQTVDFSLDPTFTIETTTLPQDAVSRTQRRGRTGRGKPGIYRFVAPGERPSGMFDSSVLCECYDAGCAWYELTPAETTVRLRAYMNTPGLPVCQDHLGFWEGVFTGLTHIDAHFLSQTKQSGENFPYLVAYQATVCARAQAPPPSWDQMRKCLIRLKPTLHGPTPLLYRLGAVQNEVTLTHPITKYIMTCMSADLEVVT
Assay: FRET peptide assay to monitor HCV NS3/4A proteolytic activity (BMS strain)
Type: biochemical, Hepatitis C virus (genotype 1a)
Conditions: NS3/4A BMS strain, enzyme assay
Outline: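 Recombinant NS3/4A complexes (aa 1027–1711) with C-terminal three-lysine tail, C1711G and C1454S, expressed in E. coli BL21(DE3) (0.5 mM IPTG, 22 h, 20°C) for H77 (1a) and J4L6S (1b); BMS strain is genotype 1a patient isolate. Purified by Ni-NTA and Superdex-S200; proteolysis monitored by FRET peptide cleavage.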

C=CC1CC1(NC(=O)[C@@H]1C[C@@H](NC(=O)c2cc(-c3ccccc3)nc3ccccc23)CN1C(=O)[C@@H](NC(=O)CC1CC1)C(C)(C)C)C(=O)NS(=O)(=O)C1CC1 (some centres unmarked) [Compound 9]
IC50: 47 nM | IC50 (read-out: IC 50 Range): < 150 nM
